Data set [1] in a line: Acute aerobic and hypoxic cytotoxicity (colony formation). To be noted: chinese hamster, aerobic v79 cells, V79 cells, aerobic, 1 hour, 37° C.; 50% inhibition of clonogenicity. It is filed as cell-based, Chinese hamster. As for the experimental part:
(§1) Samples of V79 Chinese hamster lung cells used in the following experiments were prepared as follows. V79 cells, exponentially growing as monolayer cultures in RPMI 1640 medium (Mediatech) supplemented with 10% fetal calf serum, were trypsinized, centrifuged for 5 min, harvested, then suspended in 25 ml Erlenmeyer flasks fitted with rubber caps at 5×10^5 cells/ml (5 ml). Individual flasks either were shaken (100 rpm) at 37° C. under aerobic conditions or made hypoxic by gassing with a 95% N2 (nitrogen)/5% CO2 (carbon dioxide) humidified gas mixture for 1 hour.
(§2) To determine the fraction of surviving cells, samples were removed, diluted and plated to provide 2×10^2 to 2×10^4 cells/well on 60 mm Linbro multi-well plates (Flow Laboratories, McLean, Virginia). The plates were incubated at 37° C. for 6 days, stained with crystal violet and examined for colony formation. Colonies of 50 cells or greater were counted. Each plotted point in FIGS. 1 and 2 represent the mean of three or four replicate experiments.

For data set [2], the system named is V79 Chinese hamster lung cells. The data set is described as above. The format is cell-based. As for the experimental part:
as §1, §2

Data set [3] deals with V79 Chinese hamster lung cells. Nature of the data set: Radiosensitization of V79 cells. It is filed as cell-based. The note with it: for EC (SER 1.6): Cricetulus griseus. On the procedure:
as §1
Radiosensitization studies were performed on V79 cells in a manner similar to the acute toxicity experiments, except that the survival fraction was determined after a predetermined radiation dose. […] One Gy is equal to 100 rads, wherein one rad is the quantity of ionizing radiation that results in the absorption of 100 ergs of energy per gram of irradiated material. Hypoxia was maintained throughout irradiation. […] Sensitization enhancement ratios (SER) were determined at a 10% survival level. […] The plotted points in FIGS. 3 and 4 represent the mean of 2 or 3 replicate experiments.

Data set [4] concerns V79 cells. Briefly: Isoeffective to the oxygen dose (IsD). It is filed as cell-based, Chinese hamster. The note with it: Cricetulus griseus, V79, 1 h, 7.5 Gy, 1 hour at 37° C.; read-out: Isoeffective to the oxygen dose at 7.5 Gy: IsD(7.5). The source says:
The survival fraction under hypoxic conditions (plotted versus compound concentration) meets the aerobic survival fraction (radiation toxicity) at the IsD. The IsD value is a useful indicator of the overall potency of a compound as a sensitizer and cytotoxin of hypoxic cells. IsD is especially useful when comparing different compounds for hypoxic cytotoxicity and radiosensitizing efficacy.
FIGS. 5 and 6 illustrate the IsD at 7.5 Gy (FIG. 5A) and 20 Gy (FIG. 5B). FIGS. 5A and 6A include a comparison to the prior art NLA-1 compound. V79 cells were irradiated at 7.5 Gy or 20 Gy after a 1 hour exposure under hypoxia (symbols) or air (straight line), at various drug concentrations. No toxicity or radiosensitization for any tested compound was observed under aerobic conditions over the tested concentration ranges. IsD values were calculated from the intersections of the survival fractions of the hypoxic curves with the survival fraction in air. All data points in FIGS. 5 and 6 represent the mean of two replicate experiments.

Data set [5] in a line: Partition coefficient in octanol/water. It is filed as physicochemical. On the procedure:
The partition coefficient of the hypoxia selective cytotoxins of the present invention were determined by the method of T. Fujita et al., J. Am. Chem. Soc., 86, 5175-5180 (1964), incorporated herein by reference.

The test system of data set [6] is V79 cells. Briefly: Drug uptake in the presence of ammonium chloride. The format is cell-based, Chinese hamster. The note with it: aerobic V79 cells, 60 μM input, 50 mM NH4Cl (stated for THNLA-1). As for the experimental part:
Uptake measurements in the presence of the lysosomotropic agent ammonium chloride (NH4 Cl) also were performed in a manner as previously described.
Concentrations were determined by UV spectrophotometry at 330 nm. The plotted points represent the mean of two experiments.

Data set [7] deals with T1, calf thymus Topo I (Bos taurus, UniProt F1MN93).
T1 construct: purchased TopoGEN, Inc., Columbus, Ohio; host or cells: calf thymus
T1 sequence (F1MN93 1-767): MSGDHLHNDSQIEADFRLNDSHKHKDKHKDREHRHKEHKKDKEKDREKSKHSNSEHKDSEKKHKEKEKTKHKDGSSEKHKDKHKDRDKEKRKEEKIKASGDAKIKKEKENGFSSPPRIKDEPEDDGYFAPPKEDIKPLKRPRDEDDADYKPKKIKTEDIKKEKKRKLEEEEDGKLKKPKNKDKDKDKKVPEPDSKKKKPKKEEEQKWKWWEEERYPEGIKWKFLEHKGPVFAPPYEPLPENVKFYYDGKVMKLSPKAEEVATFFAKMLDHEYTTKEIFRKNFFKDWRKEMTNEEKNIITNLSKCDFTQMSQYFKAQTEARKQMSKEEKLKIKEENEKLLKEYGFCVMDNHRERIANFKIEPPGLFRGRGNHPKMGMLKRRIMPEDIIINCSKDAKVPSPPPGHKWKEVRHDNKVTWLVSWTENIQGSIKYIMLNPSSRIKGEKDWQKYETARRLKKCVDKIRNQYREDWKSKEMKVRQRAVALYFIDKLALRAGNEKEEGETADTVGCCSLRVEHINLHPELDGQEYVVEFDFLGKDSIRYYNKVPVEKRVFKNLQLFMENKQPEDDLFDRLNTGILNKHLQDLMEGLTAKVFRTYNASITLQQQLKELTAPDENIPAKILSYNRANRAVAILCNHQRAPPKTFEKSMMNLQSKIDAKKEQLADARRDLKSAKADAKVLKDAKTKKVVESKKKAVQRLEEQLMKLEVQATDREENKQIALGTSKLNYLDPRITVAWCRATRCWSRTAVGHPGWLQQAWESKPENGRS
Nature of the data set: Topoisomerase I interaction (relaxation of supercoiled DNA). The format is biochemical. On the procedure: In particular, a Topo I drug screening kit (TopoGEN, Inc., Columbus, Ohio) was used to assay the topoisomerase I THNLA-1 interaction. […] Camptothecin is a Topoisomerase I poison used as an anticancer drug. Camptothecin stabilizes the Topo I-DNA cleavable complex, and therefore prevents the resealing of DNA by Topo-I.
Individual reaction mixtures were heated for 30 minutes at 37° C. on a heating block, and then 2 μl of 10% SDS - proteinase K solution was added to each reaction mixture. The resulting reaction mixtures then were heated for an additional 30 minutes at 37° C. The reaction mixtures in a loading buffer were extracted with CHCl3 prior to submarine electrophoresis on a 1% agarose gel. The DNA bands were observed visually by staining with ethidium bromide (0.5 μg/ml).

Data set [8] has as its system solid tumors. To be noted: cited from earlier work.

Results on one molecule are retold here after patent US5958947A, “DNA-affinic hypoxia selective cytotoxins” (priority 1996, dated 1999).

“And” between values parts separate entries of the source, which are not always exact repeats. Identical values can stand only once. Like-named read-outs stand apart in the source and are kept apart here.

In turn, `Cl.O=[N+]([O-])c1nccn1CCCNc1c2ccccc2nc2ccccc12` [NLA-1, 9-[3-(2-nitro-1-imidazolyl)propylamino]acridine hydrochloride, reference compound] registered an IC50 at 1 h in data set [1] of 84 µM. Further, the IC50 in data set [2] (Cricetulus griseus, V79, 1 h, V79 cells, hypoxia, 1 hour, 37° C., 50% inhibition of clonogenicity) was 15 µM; in data set [7] (Topo I inhibition (50%)-dose, Topo I-induced relaxation of supercoiled DNA) it was ~12 µM and 12 µM. The “Hypoxic selectivity (differential aerobic/hypoxic toxicity): IC50/A,1h /IC50/H,1h” value in data set [2] (V79 cells, 1 hour, 37° C.) is 5.5. For the same molecule, the “cytotoxicity / selectivity relative to THNLA-1 or NLA-1” value in data set [2] (from IC50/H, IC50/A and their ratio) is reported as “about a two times more potent hypoxic cytotoxin”. The EC (SER 1.6) in data set [3] (1 h, concentration yielding an SER of 1.6, hypoxic V79 cells, read-out: Hypoxic radiosensitizing potency: C1.6) was determined as 8 µM; in data set [3] (hypoxic radiosensitization, V79 cells (tables), read-out: Intracellular concentration at C1.6: C1.6i), 885 µM; in data set [3] (hypoxic radiosensitization, V79 cells, read-out: Intracellular concentration for an SER of 1.6: C1.6i), 885 µM. Moreover, the “radioprotection under aerobic conditions” value in data set [3] (aerobic) was “afforded radioprotection under aerobic conditions”. Also, the EC (isoeffective to oxygen at 7.5 Gy) in data set [4] was about 11 µM. In addition, the “Partition coefficient in octanol/water: PCo/w” value in data set [5] was 0.07. The logP in data set [5] (read-out: Partition coefficient in octanol/water: PCo/w (converted)) was -1.15. Further, in data set [6], the “factor of decrease of Ci in the presence of NH4Cl” value is “about 3”. Also, the “Topo I-dependent single-stranded DNA cleavage” value in data set [7] is “observed”. Moreover, the “radiosensitization in vivo / in solid tumors (prior art)” value in data set [8] was “failure of NLA-1 as radiosensitizer in solid tumors”.

As a reminder, the IC50 is the concentration at which inhibition is half-maximal.
